Patent US11066447B2, “Aureobasidium derivatives and methods of synthesis” (AureoGen Biosciences, Inc., priority 2016, dated 2021)
≈ marks a conversion by molar mass, not a printed value. Where two headings read alike, the source gives them in different places. Numbered stars: 1 amine (or outer) side, 2 acyl side, 3 side chain; on linkers, the order of the positions; unused ones are H or OH. Square brackets hold non-standard residues; d marks the D form. Peptide text beside a SMILES is read from it. ξ: configuration not given here. X24 = CN([C@@H](Cc1cccc(-c2ccnc(N3CCOCC3)c2)c1)C(=O)[*:2])[*:1]; X14 = CN([C@@H](Cc1cccc(-c2ccc3ncccc3c2)c1)C(=O)[*:2])[*:1]; X18 = CN([C@@H](Cc1cccc(-c2ccc3ccncc3c2)c1)C(=O)[*:2])[*:1]; Hmp(2R,3S) = CC[C@H](C)[C@@H](O)C(=O)O; NMeVal(β-OH) = CN[C@H](C(=O)O)C(C)(C)O; X6 = CCC(C)[C@@H](O[*:1])C(=O)[*:2]; Ile(3ξ) = CCC(C)[C@H](N)C(=O)O; NMeV = CN[C@H](C(=O)O)C(C)C

Experiments:
[1] = test system: C. neoformans MMX 0634 ATCC 90112; experiment: MIC assay (CLSI microdilution); assay type: cell-based; conditions: Cryptococcus neoformans, ATCC90112, RPMI plus 0.002% Tween-80; read-out: MIC
[2] = test system: C. albicans MMX 2000 ATCC 10231; experiment: MIC assay (CLSI microdilution); assay type: cell-based; conditions: Candida albicans, ATCC10231, RPMI plus 0.002% Tween-80; read-out: MIC
[3] = test system: C. parapsilosis MMX 2323 ATCC 22019; experiment: MIC assay (CLSI microdilution); assay type: cell-based, Candida parapsilosis; conditions: read-out: MIC
In short: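 Broth microdilution MIC testing of Candida parapsilosis ATCC 22019 followed CLSI methods in RPMI-1640, with or without 0.002% Tween-80. Yeast grown 48 hours at 35° C on Sabouraud dextrose agar was suspended to a 0.5 McFarland standard and diluted 1:100 to roughly 0.5-2.5×10^3 CFU/mL. The MIC was the lowest concentration preventing visible growth.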

[4] = test system: A. niger MMX 0624 ATCC 16888; experiment: MIC/MEC assay (CLSI microdilution); assay type: cell-based; conditions: Aspergillus niger, ATCC16888, 48 h; for minimal effective concentration: RPMI plus 0.002% Tween-80, read-out: MEC; for MIC: RPMI plus 0.002% Tween-80, read-out: MIC
In short: (§1)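 Test agents were assayed by CLSI broth microdilution in Tween-80-supplemented (0.002%) RPMI-1640 against spore inocula of approximately 0.2-2.5×10^4 CFU/mL. Strain MMX 5280 was run both with and without Tween-80.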

[5] = test system: A. flavus MMX 5948; experiment: MIC/MEC assay (CLSI microdilution); assay type: cell-based; conditions: Aspergillus flavus, MMX5948, 48 h; for minimal effective concentration: RPMI plus 0.002% Tween-80; for MIC: RPMI plus 0.002% Tween-80, read-out: MIC
In short: as §1

[6] = test system: A. fumigatus MMX 5944; experiment: MIC/MEC assay (CLSI microdilution); assay type: cell-based; conditions: Aspergillus fumigatus, MMX5944, 48 h; for minimal effective concentration: RPMI plus 0.002% Tween-80; for MIC: RPMI plus 0.002% Tween-80, read-out: MIC
In short: as §1

[7] = test system: A. fumigatus MMX 6781 ATCC MYA-4609; experiment: MIC/MEC assay (CLSI microdilution); assay type: cell-based; conditions: Aspergillus fumigatus; for MIC: 48 h, RPMI plus 0.002% Tween-80, read-out: MIC; for minimal effective concentration: RPMI plus 0.002% Tween-80, 48 hr
In short: as §1

[8] = test system: A. fumigatus from Aureogen; experiment: MIC/MEC assay (CLSI microdilution); assay type: cell-based; conditions: Aspergillus fumigatus, 48 h; for minimal effective concentration: RPMI plus 0.002% Tween-80; for MIC: RPMI plus 0.002% Tween-80, read-out: MIC
In short: as §1

[9] = test system: A. fumigatus MMX 6782 ATCC 13073; experiment: MIC/MEC assay (CLSI microdilution); assay type: cell-based; conditions: Aspergillus fumigatus, ATCC13073, 48 h; for minimal effective concentration: RPMI plus 0.002% Tween-80, read-out: MEC; for MIC: RPMI plus 0.002% Tween-80, read-out: MIC
In short: as §1

[10] = test system: A. fumigatus MMX 5280 ATCC MYA-3626; experiment: MIC/MEC assay (CLSI microdilution); assay type: cell-based, Aspergillus fumigatus; conditions: Aspergillus fumigatus, 48 h
In short: as §1

[11] = ATCC22019, RPMI plus 0.002% Tween-80
[12] = RPMI plus 0.002% Tween-80, read-out: MEC
[13] = RPMI plus 0.002% Tween-80, read-out: MIC
[14] = Without Tween-80, read-out: MEC
[15] = Without Tween-80, read-out: MIC

CC[C@H](C)[C@@H]1NC(=O)[C@@H]2CCCN2C(=O)[C@H](Cc2cccc(-c3ccc4ccncc4c3)c2)N(C)C(=O)[C@H](Cc2ccccc2)NC(=O)[C@H](C(C)C)N(C)C(=O)[C@@H]([C@@H](C)CC)OC(=O)[C@H](C(C)(C)O)N(C)C(=O)[C@H](CC(C)C)NC(=O)[C@H](C(C)C)N(C)C1=O [Compound 17] (cyclo(F[X18]PI[NMeV]L[NMeVal(β-OH)][Hmp(2R,3S)][NMeV]))
MIC [1]: 0.25 µg/mL
MIC [2]: 0.015 µg/mL
MIC [3, 11]: 0.06 µg/mL
MIC ([3]; ATCC22019, Without Tween-80): 1 µg/mL (≈ 0.814 µM)
minimal effective concentration [4]: 0.06 µg/mL
MIC [4]: 0.12 µg/mL
minimal effective concentration [5]: 0.12 µg/mL
MIC [5]: 0.5 µg/mL
minimal effective concentration [6]: > 64 µg/mL
MIC [6]: > 64 µg/mL
MIC [7]: > 64 µg/mL
minimal effective concentration [7]: > 64 µg/mL
minimal effective concentration [8]: > 64 µg/mL
MIC [8]: > 64 µg/mL
minimal effective concentration [9]: > 64 µg/mL
MIC [9]: > 64 µg/mL
minimal effective concentration [10, 12]: > 64 µg/mL
MIC [10, 13]: > 64 µg/mL
minimal effective concentration [10, 14]: > 64 µg/mL
MIC [10, 15]: > 64 µg/mL

CCC(C)[C@@H]1NC(=O)[C@@H]2CCCN2C(=O)[C@H](Cc2cccc(-c3ccc4ncccc4c3)c2)N(C)C(=O)[C@H](Cc2ccccc2)NC(=O)[C@H](C(C)C)N(C)C(=O)[C@@H](C(C)CC)OC(=O)[C@H](C(C)(C)O)N(C)C(=O)[C@H](CC(C)C)NC(=O)[C@H](C(C)C)N(C)C1=O (stereo partly drawn) [Compound 18] (cyclo(F[X14]P[Ile(3ξ)][NMeV]L[NMeVal(β-OH)][X6][NMeV]))
MIC [1]: 0.25 µg/mL
MIC [2]: 0.03 µg/mL
MIC [3, 11]: 0.12 µg/mL
MIC ([3]; ATCC22019, Without Tween-80): 1 µg/mL (≈ 0.814 µM)
minimal effective concentration [4]: 0.06 µg/mL
MIC [4]: 0.25 µg/mL
minimal effective concentration [5]: 0.25 µg/mL
MIC [5]: 0.5 µg/mL
minimal effective concentration [6]: > 64 µg/mL
MIC [6]: > 64 µg/mL
MIC [7]: > 64 µg/mL
minimal effective concentration [7]: > 64 µg/mL
minimal effective concentration [8]: > 64 µg/mL
MIC [8]: > 64 µg/mL
MIC [9]: > 64 µg/mL
minimal effective concentration [10, 12]: > 64 µg/mL
MIC [10, 13]: > 64 µg/mL
minimal effective concentration [10, 14]: > 64 µg/mL
MIC [10, 15]: > 64 µg/mL

CC[C@H](C)[C@@H]1NC(=O)[C@@H]2CCCN2C(=O)[C@H](Cc2cccc(-c3ccnc(N4CCOCC4)c3)c2)N(C)C(=O)[C@H](Cc2ccccc2)NC(=O)[C@H](C(C)C)N(C)C(=O)[C@@H]([C@@H](C)CC)OC(=O)[C@H](C(C)(C)O)N(C)C(=O)[C@H](CC(C)C)NC(=O)[C@H](C(C)C)N(C)C1=O [Compound 21] (cyclo(F[X24]PI[NMeV]L[NMeVal(β-OH)][Hmp(2R,3S)][NMeV]))
MIC [1]: 0.25 µg/mL
MIC [2]: 0.015 µg/mL
MIC [3, 11]: 0.06 µg/mL
MIC ([3]; ATCC22019, Without Tween-80): 1 µg/mL (≈ 0.791 µM)
minimal effective concentration [4]: 0.06 µg/mL
MIC [4]: 0.25 µg/mL
minimal effective concentration [5]: 0.25 µg/mL
MIC [5]: > 64 µg/mL
minimal effective concentration [6]: > 64 µg/mL
MIC [6]: > 64 µg/mL
MIC [7]: > 64 µg/mL
minimal effective concentration [7]: > 64 µg/mL
minimal effective concentration [8]: > 64 µg/mL
MIC [8]: > 64 µg/mL
minimal effective concentration [9]: > 64 µg/mL
MIC [9]: > 64 µg/mL
minimal effective concentration [10, 12]: > 64 µg/mL
MIC [10, 13]: > 64 µg/mL
minimal effective concentration [10, 14]: > 64 µg/mL
MIC [10, 15]: > 64 µg/mL
